Laboratory results published in patent US9061030B2, “sGC stimulators” (IRONWOOD PHARMACEUTICALS, INC., priority 2010, dated 2015).

Assays:
[1] = molecular target: T1, Human soluble guanylate cyclase enzyme (hsGC) (Homo sapiens, UniProt Q02108+Q02153); test: Purified human sGC enzyme activity assay (with or without SNP); type: biochemical; settings: 30 μM compound; for sGC Enzyme Activity Increase at 30 μM with SNP: 1 μM SNP, specific activity vs DMSO and SNP; for sGC Enzyme Activity Increase at 30 μM without SNP: specific activity vs DMSO control
T1 construct: purchased Enzo Inc. ALX-201-177
T1 sequence (Q02153 1-619): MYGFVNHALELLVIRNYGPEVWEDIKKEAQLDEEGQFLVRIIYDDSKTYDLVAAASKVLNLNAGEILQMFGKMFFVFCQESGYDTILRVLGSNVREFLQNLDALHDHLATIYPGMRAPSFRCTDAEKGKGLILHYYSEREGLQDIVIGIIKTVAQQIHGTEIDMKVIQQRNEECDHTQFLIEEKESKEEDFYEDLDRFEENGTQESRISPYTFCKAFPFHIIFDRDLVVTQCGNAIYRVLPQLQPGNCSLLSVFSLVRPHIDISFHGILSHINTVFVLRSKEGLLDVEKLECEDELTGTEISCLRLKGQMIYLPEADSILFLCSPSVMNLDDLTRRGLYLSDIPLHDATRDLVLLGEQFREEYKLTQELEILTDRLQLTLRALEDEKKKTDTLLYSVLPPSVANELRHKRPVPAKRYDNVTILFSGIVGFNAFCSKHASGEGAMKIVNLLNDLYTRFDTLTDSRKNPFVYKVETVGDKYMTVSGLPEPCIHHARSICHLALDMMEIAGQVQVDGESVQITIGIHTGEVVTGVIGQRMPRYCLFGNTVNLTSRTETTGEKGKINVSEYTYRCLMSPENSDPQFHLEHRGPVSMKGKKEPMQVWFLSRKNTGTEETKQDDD
T1 sequence (Q02108 1-690): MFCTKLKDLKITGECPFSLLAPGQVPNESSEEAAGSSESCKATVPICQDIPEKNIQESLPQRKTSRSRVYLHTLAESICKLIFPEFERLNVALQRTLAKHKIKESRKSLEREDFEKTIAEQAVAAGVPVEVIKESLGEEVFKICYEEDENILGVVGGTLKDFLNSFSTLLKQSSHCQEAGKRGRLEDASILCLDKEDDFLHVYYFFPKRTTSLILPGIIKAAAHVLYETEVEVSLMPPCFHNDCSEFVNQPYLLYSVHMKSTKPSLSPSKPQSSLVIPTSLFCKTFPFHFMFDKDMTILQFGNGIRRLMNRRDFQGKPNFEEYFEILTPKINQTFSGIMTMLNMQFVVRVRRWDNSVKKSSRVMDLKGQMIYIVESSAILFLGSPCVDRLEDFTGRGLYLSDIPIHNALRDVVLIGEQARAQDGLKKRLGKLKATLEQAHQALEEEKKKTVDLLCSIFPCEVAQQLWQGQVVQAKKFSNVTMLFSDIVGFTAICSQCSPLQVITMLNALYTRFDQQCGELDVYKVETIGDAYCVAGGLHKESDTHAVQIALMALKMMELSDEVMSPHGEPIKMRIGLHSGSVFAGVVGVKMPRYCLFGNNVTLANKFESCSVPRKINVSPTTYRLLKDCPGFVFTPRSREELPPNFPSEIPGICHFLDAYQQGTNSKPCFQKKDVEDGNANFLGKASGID
Description: Human soluble guanylate cyclase enzyme (hsGC) obtained from Enzo Inc. (P/N: ALX-201-177) was used to evaluate the activity of test compounds. The assay reactions contained 0.1 M Tris (pH 8.0), 0.5 mg/mL BSA (pH 8.0), 2 mM DTT, 2 mM MgCl2, 300 μM GTP, 1 mM 3-isobutyl-1-methylxanthine (IBMX) and 5 ng human soluble guanylate cyclase enzyme. Test compounds in DMSO were then added (2 μL, 10 or 30 μM final concentration) and incubated (200 μL, 96-well plate format) at 37° C. for 30 minutes. The controls were carried out using 2 μL DMSO. After the 30 minute incubation, the reaction was stopped with the addition of 200 μL of cold methanol. The plate was then centrifuged at 3,200 rpm for 10 minutes at room temperature. Supernatants (200 μL) were collected and transferred to a new 96 well plate for analysis.
An 8 point cGMP (Sigma-Aldrich P/N: G6129) standard curve was prepared in assay buffer ranging from 0.156-20 μM. Samples for the cGMP standard curve were then diluted with an equal volume of methanol resulting in final cGMP concentrations of 0.078-10 μM.
The cGMP standard curve was generated using GraphPad Prism Software.
Calculations: Specific Activity was determined by the amount of cGMP formed (nmoles) per mg of sGC per min. Enzyme activity “fold-change” was calculated by dividing the Specific Activity for a test compound by the Specific Activity of DMSO control.
The enzymatic activity fold-change of the purified human sGC enzyme determined in the presence of each of the test compounds individually at 10 or 30 μm without the addition of sodium nitroprusside (SNP), a nitric oxide donor, is presented in Table 5.
Enzyme assays were also performed as described above, but in the presence of 1 μM sodium nitroprusside (SNP). Enzymatic activity fold-changes are reported for selected test compounds in the presence of both SNP and the test compound. These were calculated by dividing the specific activity (activity increase) for the test compound dissolved in DMSO and SNP over the specific activity for the mixture of DMSO and SNP.

[2] = molecular target: T2, soluble guanylate cyclase (sGC) (Homo sapiens, UniProt Q02108+Q02153); test: sGC-HEK-cGMP assay; type: cell-based; settings: HEK293 cells, 10 μM SNP, percentage of sGC activity obtained with positive control BAY 41-2272 (= 100%); for Emax at 10 µM: compound at 10 μM; for Emax at 30 µM: compound at 30 μM
T2 construct: endogenously expressing soluble guanylate cyclase (sGC); endogenous in cells; host or cells: HEK293
T2 sequence (Q02153 1-619): T1 sequence (Q02153 1-619)
T2 sequence (Q02108 1-690): T1 sequence (Q02108 1-690)
Description: Human embryonic kidney cells (HEK293), endogenously expressing soluble guanylate cyclase (sGC), were used to evaluate the activity of the test compounds. Compounds stimulating the sGC receptor should cause an increase in the intracellular concentration of cGMP. HEK 293 cells were seeded in Dulbecco's Modification of Eagle's Medium supplemented with fetal bovine serum (10% final) and L-glutamine (2 mM final) in a 200 μL volume at a density of 1×10^5 cells/well in a poly-D-lysine coated 96 well flat bottom plate and grown overnight at 37° C. Medium was aspirated and cells were washed with 1× Hank's Buffered Saline Salt Solution (200 μL). Cells were then incubated for 15 minutes at 37° C. with 0.5 mM 3-isobutyl-1-methylxanthine (200 μL). Test article was then added to the assay mixture (2 μL) and incubated in the presence of 10 μM Sodium Nitroprusside (SNP) at 37° C. for 10 minutes. After the 10 minute incubation, the assay mixture was aspirated and 0.1M HCl (200 μL) was added to the cells. The plate was incubated at 4° C. for 30 minutes in the 0.1M HCl to stop the reaction and lysed the cells. The plates were then centrifuged at 1,200 g for 5 minutes at room temperature. Supernatants were collected and transferred to a new flat bottom 96 well plate for analysis. Vehicle controls were carried out using DMSO (1%). A known sGC stimulator, BAY 41-2272, was used as the positive control.
Samples were diluted with an equal volume of 1 M Ammonium Acetate (pH 7) to neutralize samples for better chromatography. A 2×cGMP standard curve was prepared in 0.1 M HCl and then diluted with an equal volume of 1 M Ammonium Acetate, with the following final concentrations in nM: 1024, 512, 256, 128, 64, 32, 16, 8, 4, 2, 1.cGMP concentrations were determined from each sample using the LC/MS conditions (Table 2 below) and calculated standard curve. EC50 values were calculated from concentration-response curves generated with GraphPad Prism Software.
The biological activities of some of the compounds according to Formula IA or Formula IB determined with the sGC-HEK assay are summarized in Table 3 below.

SMILES | sGC Enzyme Activity Increase at 30 μM with SNP [1] | sGC Enzyme Activity Increase at 30 μM without SNP [1] | Emax at 10 µM [2] [%] | Emax at 30 µM [2] [%]
Fc1ccccc1Cn1nc(-c2ccccn2)nc1-c1ccccc1 [Compound I-2] | C (C = 2 to <5 fold increase) | D (D = 5 to <10 fold increase) | 5 to 10 | 5 to 10
Fc1ccccc1Cn1nc(-c2cscn2)nc1-c1ccccn1 [Compound I-5] | C (C = 2 to <5 fold increase) | B (B = 1 to <2 fold increase) | 5 to 10 | 10 to 20
Fc1ccccc1Cn1nc(-c2ncco2)nc1-c1ccccn1 [Compound I-7] | B (B = 1 to <2 fold increase) | B (B = 1 to <2 fold increase) | 0 to 5 | 5 to 10
Fc1ccccc1Cn1nc(-c2ncco2)nc1-c1ncccn1 [Compound I-8] | B (B = 1 to <2 fold increase) | C (C = 2 to <5 fold increase) | 0 to 5 | 0 to 5
Fc1ccccc1Cn1nc(-c2ncccn2)nc1-c1ncco1 [Compound I-9] | B (B = 1 to <2 fold increase) | C (C = 2 to <5 fold increase) | 0 to 5 | 5 to 10
Fc1ccccc1Cn1nc(-c2ncccn2)nc1-c1ccco1 [Compound I-11] | C (C = 2 to <5 fold increase) | C (C = 2 to <5 fold increase) | 10 to 20 | 10 to 20
Fc1ccccc1Cn1nc(-c2cocn2)nc1-c1ccccn1 [Compound I-13, 4-(1-(2-fluorobenzyl)-5-(pyridin-2-yl)-1H-1,2,4-triazol-3-yl)oxazole] | B (B = 1 to <2 fold increase) | C (C = 2 to <5 fold increase) | 0 to 5 | 0 to 5
Nc1cccc(-c2nc(-c3nccs3)n(Cc3ccccc3F)n2)n1 [Compound I-14, 6-(1-(2-fluorobenzyl)-5-(thiazol-2-yl)-1H-1,2,4-triazol-3-yl)pyridin-2-amine] | C (C = 2 to <5 fold increase) | B (B = 1 to <2 fold increase) | 5 to 10 | 10 to 20
Fc1ccccc1Cn1nc(-c2ccccn2)nc1Br [Compound I-16, 2-(5-bromo-1-(2-fluorobenzyl)-1H-1,2,4-triazol-3-yl)pyridine] | C (C = 2 to <5 fold increase) | B (B = 1 to <2 fold increase) | 0 to 5 | 5 to 10
Fc1ccccc1Cn1nc(-c2nccs2)nc1-c1cccc(Br)n1 [Compound I-18, 2-(5-(6-bromopyridin-2-yl)-1-(2-fluorobenzyl)-1H-1,2,4-triazol-3-yl)thiazole] | C (C = 2 to <5 fold increase) | B (B = 1 to <2 fold increase) | 0 to 5 | 0 to 5
Fc1ccccc1Cn1nc(-c2cccc(Br)n2)nc1-c1nccs1 [Compound I-19, 2-(3-(6-bromopyridin-2-yl)-1-(2-fluorobenzyl)-1H-1,2,4-triazol-5-yl)thiazole] | C (C = 2 to <5 fold increase) | B (B = 1 to <2 fold increase) | 10 to 20 | 0 to 5
NC(=O)c1ccnc(-c2nc(-c3nccs3)n(Cc3ccccc3F)n2)c1 [Compound I-64, 2-(1-(2-fluorobenzyl)-5-(thiazol-2-yl)-1H-1,2,4-triazol-3-yl)isonicotinamide] |  |  | 10 to 20 | 5 to 10
Nc1ccnc(-c2nc(-c3cocn3)n(Cc3ccccc3F)n2)c1 [Compound I-66, 2-(1-(2-fluorobenzyl)-5-(oxazol-4-yl)-1H-1,2,4-triazol-3-yl)pyridin-4-amine] |  |  | 40 to 60 | 40 to 60
